Test results published in US20230295197A1, “STAT5 and STAT6 Degraders and Uses Thereof” (REGENTS OF THE UNIVERSITY OF MICHICAN, priority 2022, published 2023).
Where two headings read alike, the source gives them in different places.

Biological target: T1, STAT6 (Homo sapiens, UniProt P42226)
T1 construct: endogenous in cells; host or cells: MOLM-16, KU-812, SKNO1, MB231, L1236
T1 sequence (P42226 1-847): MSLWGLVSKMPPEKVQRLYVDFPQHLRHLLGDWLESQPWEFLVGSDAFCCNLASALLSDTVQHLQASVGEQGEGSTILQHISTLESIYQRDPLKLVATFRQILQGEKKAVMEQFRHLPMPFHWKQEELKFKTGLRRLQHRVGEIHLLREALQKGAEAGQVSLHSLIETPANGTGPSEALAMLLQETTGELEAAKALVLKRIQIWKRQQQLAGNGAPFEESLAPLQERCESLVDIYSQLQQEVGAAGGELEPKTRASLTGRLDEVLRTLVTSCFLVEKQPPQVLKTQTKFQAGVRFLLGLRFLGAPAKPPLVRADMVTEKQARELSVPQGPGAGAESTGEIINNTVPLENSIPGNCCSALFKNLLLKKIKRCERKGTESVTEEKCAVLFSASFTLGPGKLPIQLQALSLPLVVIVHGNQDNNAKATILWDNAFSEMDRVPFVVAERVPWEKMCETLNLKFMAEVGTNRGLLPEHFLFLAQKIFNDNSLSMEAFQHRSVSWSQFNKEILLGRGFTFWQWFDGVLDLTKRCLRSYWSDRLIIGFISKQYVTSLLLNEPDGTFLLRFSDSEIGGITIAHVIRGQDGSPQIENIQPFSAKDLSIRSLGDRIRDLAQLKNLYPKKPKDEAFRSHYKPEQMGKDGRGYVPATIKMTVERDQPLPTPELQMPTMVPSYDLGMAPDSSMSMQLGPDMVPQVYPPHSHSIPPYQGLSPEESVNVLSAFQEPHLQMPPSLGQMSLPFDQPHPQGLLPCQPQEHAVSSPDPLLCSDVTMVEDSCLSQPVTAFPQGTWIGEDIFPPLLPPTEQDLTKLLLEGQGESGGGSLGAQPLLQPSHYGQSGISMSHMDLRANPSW
Assay: Immunoblotting (Western blot) analysis of STAT6 degradation efficiency of degraders in treated cells
Type: cell-based
Outline: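 Each data point uses roughly one million cells dosed as indicated; pellets are lysed on ice, freeze-thawed, and clarified. Reduced, denatured samples (95 °C, 5 min) run on SDS gels, then membranes receive rabbit mAbs to STAT5 or STAT6 plus mouse anti-GAPDH overnight, followed by dye-labelled secondaries for fluorescence imaging.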

[1] = MOLM-16 cells, class symbols, read-out: DC50 S6 MOLM-16
[2] = L1236 cells, read-out: DC50 S6 L1236
[3] = MB231 cells, read-out: DC50 S6 MB231
[4] = MOLM-16 cells, numeric bound, read-out: DC50 S6 MOLM-16

SMILES: CC(C)(C)[C@H](NC(=O)c1cc2cc(C(F)(F)P(=O)(O)O)ccc2s1)C(=O)N1C[C@@H](OCC(=O)NCCCC#Cc2cccc3c2C(=O)N(C2CCC(=O)NC2=O)C3=O)C[C@H]1C(=O)N1CCO[C@H](c2ccccc2)C1 (stereo partly drawn) [Compound 483, ((2-(((2S)-1-((2S,4S)-4-(2-((5-(2-(2,6-dioxopiperidin-3-yl)-1,3-dioxoisoindolin-4-yl)pent-4-yn-1-yl)amino)-2-oxoethoxy)-2-((R)-2-phenylmorpholine-4-carbonyl)pyrrolidin-1-yl)-3,3-dimethyl-1-oxobutan-2-yl)carbamoyl)benzo[b]thiophen-5-yl)difluoromethyl)phosphonic acid]
- DC50 [1]: 1 to 10 µM

SMILES: Cc1ncsc1-c1ccc(CNC(=O)[C@@H]2C[C@@H](O)CN2C(=O)[C@@H](NC(=O)CCCCCCCNC(=O)CO[C@@H]2C[C@@H](C(=O)N(C)c3ccc(Br)cc3)N(C(=O)[C@@H](NC(=O)c3cc4cc(C(F)(F)P(=O)(O)O)ccc4s3)C(C)(C)C)C2)C(C)(C)C)cc1 [Compound 419, ((2-(((S)-1-((2S,4R)-2-((4-bromophenyl)(methyl)carbamoyl)-4-(2-((8-(((S)-1-((2S,4R)-4-hydroxy-2-((4-(4-methylthiazol-5-yl)benzyl)carbamoyl)pyrrolidin-1-yl)-3,3-dimethyl-1-oxobutan-2-yl)amino)-8-oxooctyl)amino)-2-oxoethoxy)pyrrolidin-1-yl)-3,3-dimethyl-1-oxobutan-2-yl)carbamoyl)benzo[b]thiophen-5-yl)difluoromethyl)phosphonic acid]
- DC50 [2]: > 10 µM
- DC50 [3]: > 10 µM

SMILES: CC(C)(C)[C@H](NC(=O)c1cc2cc(C(F)(F)P(=O)(O)O)ccc2s1)C(=O)N1C[C@@H](OCCCCCCC#Cc2cccc3c2CN(C2CCC(=O)NC2=O)C3=O)C[C@H]1C(=O)N1CCOC(c2ccc(F)c(Cl)c2)C1 (stereo partly drawn) [Compound 608, ((2-(((2S)-1-((2S,4S)-2-(2-(3-chloro-4-fluorophenyl)morpholine-4-carbonyl)-4-((8-(2-(2,6-dioxopiperidin-3-yl)-1-oxoisoindolin-4-yl)oct-7-yn-1-yl)oxy)pyrrolidin-1-yl)-3,3-dimethyl-1-oxobutan-2-yl)carbamoyl)benzo[b]thiophen-5-yl)difluoromethyl)phosphonic acid]
- DC50 [4]: > 0.3 µM

SMILES: CC(C)(C)[C@H](NC(=O)c1cc2cc(C(F)(F)P(=O)(O)O)ccc2s1)C(=O)N1C[C@@H](OCCCCCNc2cccc3c2CN(C2CCC(=O)NC2=O)C3=O)C[C@H]1C(=O)N1CCO[C@H](c2ccccc2)C1 (stereo partly drawn) [Compound 598, ((2-(((2S)-1-((2S,4S)-4-((5-((2-(2,6-dioxopiperidin-3-yl)-1-oxoisoindolin-4-yl)amino)pentyl)oxy)-2-((R)-2-phenylmorpholine-4-carbonyl)pyrrolidin-1-yl)-3,3-dimethyl-1-oxobutan-2-yl)carbamoyl)benzo[b]thiophen-5-yl)difluoromethyl)phosphonic acid]
- DC50 [4]: > 0.3 µM

SMILES: Cc1ncsc1-c1ccc([C@H](C)NC(=O)[C@@H]2C[C@@H](O)CN2C(=O)[C@@H](NC(=O)CCCCNC(=O)CO[C@H]2C[C@@H](C(=O)N3CCC[C@H](c4ccccc4)C3)N(C(=O)[C@@H](NC(=O)c3cc4cc(C(F)(F)P(=O)(O)O)ccc4s3)C(C)(C)C)C2)C(C)(C)C)cc1 [Compound 437, (difluoro(2-(((S)-1-((2S,4S)-4-(2-((5-(((S)-1-((2S,4R)-4-hydroxy-2-(((S)-1-(4-(4-methylthiazol-5-yl)phenyl)ethyl)carbamoyl)pyrrolidin-1-yl)-3,3-dimethyl-1-oxobutan-2-yl)amino)-5-oxopentyl)amino)-2-oxoethoxy)-2-((R)-3-phenylpiperidine-1-carbonyl)pyrrolidin-1-yl)-3,3-dimethyl-1-oxobutan-2-yl)carbamoyl)benzo[b]thiophen-5-yl)methyl)phosphonic acid]
- DC50 [2]: > 10 µM
- DC50 [1]: > 10 µM

SMILES: CC(C)(C)[C@H](NC(=O)c1cc2cc(C(F)(F)P(=O)(O)O)ccc2s1)C(=O)N1Cc2cc(OCC(=O)NCCCCC#Cc3cccc4c3C(=O)N(C3CCC(=O)NC3=O)C4=O)ccc2C[C@H]1C(=O)N1CCC[C@H](c2ccccc2)C1 (stereo partly drawn) [Compound 555, ((2-(((2S)-1-((3S)-7-(2-((6-(2-(2,6-dioxopiperidin-3-yl)-1,3-dioxoisoindolin-4-yl)hex-5-yn-1-yl)amino)-2-oxoethoxy)-3-((R)-3-phenylpiperidine-1-carbonyl)-3,4-dihydroisoquinolin-2(1H)-yl)-3,3-dimethyl-1-oxobutan-2-yl)carbamoyl)benzo[b]thiophen-5-yl)difluoromethyl)phosphonic acid]
- DC50 [1]: > 10 µM

SMILES: Cc1ncsc1-c1ccc([C@H](C)NC(=O)[C@@H]2C[C@@H](O)CN2C(=O)[C@@H](NC(=O)CCCCNC(=O)COc2ccc3c(c2)CN(C(=O)[C@@H](NC(=O)c2cc4cc(C(F)(F)P(=O)(O)O)ccc4s2)C(C)(C)C)[C@H](C(=O)N2CCO[C@H](c4ccccc4)C2)C3)C(C)(C)C)cc1 [Compound 464, (difluoro(2-(((S)-1-((S)-7-(2-((5-(((S)-1-((2S,4R)-4-hydroxy-2-(((S)-1-(4-(4-methylthiazol-5-yl)phenyl)ethyl)carbamoyl)pyrrolidin-1-yl)-3,3-dimethyl-1-oxobutan-2-yl)amino)-5-oxopentyl)amino)-2-oxoethoxy)-3-((R)-2-phenylmorpholine-4-carbonyl)-3,4-dihydroisoquinolin-2(1H)-yl)-3,3-dimethyl-1-oxobutan-2-yl)carbamoyl)benzo[b]thiophen-5-yl)methyl)phosphonic acid]
- DC50 [2]: > 10 µM
- DC50 [1]: > 10 µM

SMILES: CC(C)(C)[C@H](NC(=O)c1cc2cc(C(F)(F)P(=O)(O)O)ccc2s1)C(=O)N1CCC[C@H]1C(=O)N(CCC(=O)NCCCCCCCCCC#Cc1cccc2c1CN(C1CCC(=O)NC1=O)C2=O)c1ccc(Br)cc1 (stereo partly drawn) [Compound 402, ((2-(((2S)-1-((2S)-2-((4-bromophenyl)(3-((11-(2-(2,6-dioxopiperidin-3-yl)-1-oxoisoindolin-4-yl)undec-10-yn-1-yl)amino)-3-oxopropyl)carbamoyl)pyrrolidin-1-yl)-3,3-dimethyl-1-oxobutan-2-yl)carbamoyl)benzo[b]thiophen-5-yl)difluoromethyl)phosphonic acid]
- DC50 [3]: > 10 µM

SMILES: CC(C)(C)[C@H](NC(=O)c1cc2cc(C(F)(F)P(=O)(O)O)ccc2s1)C(=O)N1C[C@@H](OCCCCCCC#Cc2cccc3c2CN(C2CCC(=O)NC2=O)C3=O)C[C@H]1C(=O)N1CCO[C@H](c2ccccc2)C1 (stereo partly drawn) [Compound 587, ((2-(((2S)-1-((2S,4S)-4-((8-(2-(2,6-dioxopiperidin-3-yl)-1-oxoisoindolin-4-yl)oct-7-yn-1-yl)oxy)-2-((R)-2-phenylmorpholine-4-carbonyl)pyrrolidin-1-yl)-3,3-dimethyl-1-oxobutan-2-yl)carbamoyl)benzo[b]thiophen-5-yl)difluoromethyl)phosphonic acid]
- DC50 [2]: 0.1 to 1 µM
- DC50 [1]: < 0.1 µM

SMILES: CC(C)(C)[C@H](NC(=O)c1cc2cc(C(F)(F)P(=O)(O)O)ccc2s1)C(=O)N1CCN(C(=O)CCCC#Cc2ccc3c(c2)CN(C2CCC(=O)NC2=O)C3=O)C[C@H]1C(=O)N1CCO[C@H](c2ccccc2)C1 (stereo partly drawn) [Compound 597, ((2-(((2S)-1-((2S)-4-(6-(2-(2,6-dioxopiperidin-3-yl)-1-oxoisoindolin-5-yl)hex-5-ynoyl)-2-((R)-2-phenylmorpholine-4-carbonyl)piperazin-1-yl)-3,3-dimethyl-1-oxobutan-2-yl)carbamoyl)benzo[b]thiophen-5-yl)difluoromethyl)phosphonic acid]
- DC50 [4]: > 0.3 µM
